From patent US20160346249A1 (priority 2012, published 2016)
Like-named read-outs stand apart in the source and are kept apart here.

How the values were obtained:
[1] = mouse, in vivo; for AUC0-24: po
[2] = Acute intravenous or oral rat bioavailability study; assay type: in vivo; details: plasma, oral 10 mg/kg vs IV 5 mg/kg, both sexes, read-out: absolute oral bioavailability
Method: Plasma samples were assayed using a validated LC/MS/MS assay.

[3] = 2-week dog toxicity and toxicokinetic study; assay type: in vivo
Method: Blood samples were collected on Day 0 and Day 13 of the study from up to 2 animals/gender/group.
Clinical pathology evaluations (hematology and serum chemistry) were performed prior to the initiation of treatment (Week −1) and just prior to the scheduled necropsy. At termination, necropsies were conducted and selected organs were weighed. Selected tissues were examined microscopically for animals in the control and high-dose groups.

[4] = 26-week rat toxicity and toxicokinetic study; assay type: in vivo
Method: A portion of the animals from each group was maintained for an additional 4-week post-treatment recovery period.
For toxicology assessment, groups comprised thirty animals of each gender. Assessments included clinical observations, body weight, and food consumption measures noted periodically during the study. […] Ophthalmic examinations were performed during Weeks 1 and 13. […] In addition, the liver, vagina, and ovaries were identified as potential target tissues and were examined microscopically for all animals from all groups at the primary and recovery necropsies. […] 10 animals of each gender from each group were held to week 30 for a 4-week post-treatment recovery period.
For the toxicokinetic studies, there were ten animals of each gender in each group.

[5] = female, beagle, in vivo, po, 5 mg/kg/day, females, 5 mg/kg/day, Day 0
[6] = female, beagle, in vivo, po, 5 mg/kg/day, females, 5 mg/kg/day, Day 13
[7] = female, beagle, in vivo, po, 10 mg/kg/day, females, 10 mg/kg/day, Day 0
[8] = female, beagle, in vivo, po, 10 mg/kg/day, females, 10 mg/kg/day, Day 13
[9] = female, beagle, in vivo, po, 20 mg/kg/day, females, 20 mg/kg/day, Day 0
[10] = male, beagle, in vivo, po, 5 mg/kg/day, males, 5 mg/kg/day, Day 0
[11] = male, beagle, in vivo, po, 5 mg/kg/day, males, 5 mg/kg/day, Day 13
[12] = male, beagle, in vivo, po, 10 mg/kg/day, males, 10 mg/kg/day, Day 0
[13] = male, beagle, in vivo, po, 10 mg/kg/day, males, 10 mg/kg/day, Day 13
[14] = male, beagle, in vivo, po, 20 mg/kg/day, males, 20 mg/kg/day, Day 0
[15] = male, beagle, in vivo, po, 20 mg/kg/day, males, 20 mg/kg/day, Day 13

SMILES: Clc1ccc([C@]23CNC[C@H]2C3)cc1Cl [amitifadine, (+)-1-(3,4-dichlorophenyl)-3-azabicyclo[3.1.0]hexane]
- AUC0-24 ([1]; female, Crl:CD-1(ICR) BR, 10 mg/kg/day): 2086 ng·h/mL
- AUC0-24 ([1]; female, Crl:CD-1(ICR) BR, 30 mg/kg/day): 6474 ng·h/mL
- AUC0-24 ([1]; female, Crl:CD-1(ICR) BR, 100 mg/kg/day): 26436 ng·h/mL
- twitching (animals affected) ([1]; male, Crl:CD-1(ICR) BR, 150 mg/kg/day, 0 study day): 3/10
- AUC0-24 ([1]; male, Crl:CD-1(ICR) BR, 10 mg/kg/day): 1907 ng·h/mL
- AUC0-24 ([1]; male, Crl:CD-1(ICR) BR, 30 mg/kg/day): 7250 ng·h/mL
- AUC0-24 ([1]; male, Crl:CD-1(ICR) BR, 100 mg/kg/day): 40306 ng·h/mL
- AUC0-24 ([1]; male, Crl:CD-1(ICR) BR, 150 mg/kg/day): 40248 ng·h/mL
- absolute liver weight higher ([1]; 150 mg/kg/day): 22%
- absolute lymphocyte counts lower ([1]; 150 mg/kg/day): 54%
- percent neutrophil counts higher ([1]; 150 mg/kg/day): 183%
- percentage lymphocyte counts lower ([1]; 150 mg/kg/day): 31%
- bioavailability [2]: ≥ 77%
- (+) to (−) stereoisomer conversion [3]: no evidence of (+) to (−) stereoisomer conversion
- NOAEL at 14 days ([3]; both sexes, beagle, in vivo, oral capsule, 14 days, read-out: NOAEL for systemic toxicity): 10 mg/kg/day
- AUC(0-t) ([3]; female, beagle, in vivo, oral, 10 mg/kg/day, females, 10 mg/kg/day, Day 13, read-out: AUC0-24): 11200 ng·h/mL
- Cmax [3, 5]: 1650 ng/mL
- Tmax [3, 5]: 2 h
- AUC(0-t) ([3]; female, beagle, in vivo, po, 5 mg/kg/day, females, 5 mg/kg/day, Day 0, read-out: AUC0-24): 5570 ng·h/mL
- Cmax [3, 6]: 2040 ng/mL
- Tmax [3, 6]: 1 h
- AUC(0-t) ([3]; female, beagle, in vivo, po, 5 mg/kg/day, females, 5 mg/kg/day, Day 13, read-out: AUC0-24): 5610 ng·h/mL
- Cmax [3, 7]: 3450 ng/mL
- Tmax [3, 7]: 1 h
- AUC(0-t) ([3]; female, beagle, in vivo, po, 10 mg/kg/day, females, 10 mg/kg/day, Day 0, read-out: AUC0-24): 15000 ng·h/mL
- Cmax [3, 8]: 2800 ng/mL
- Tmax [3, 8]: 2 h
- Cmax [3, 9]: 9950 ng/mL
- Tmax [3, 9]: 1 h
- AUC(0-t) ([3]; female, beagle, in vivo, po, 20 mg/kg/day, females, 20 mg/kg/day, Day 0, read-out: AUC0-24): 57100 ng·h/mL
- Cmax ([3]; female, beagle, in vivo, po, 20 mg/kg/day, females, 20 mg/kg/day, Day 13): 3530 ng/mL
- AUC(0-t) ([3]; female, beagle, in vivo, po, 20 mg/kg/day, females, 20 mg/kg/day, Day 13, read-out: AUC0-24): 11500 ng·h/mL
- AUC(0-t) ([3]; male, beagle, in vivo, oral, 10 mg/kg/day, males, 10 mg/kg/day, Day 13, read-out: AUC0-24): 3170 ng·h/mL
- Cmax [3, 10]: 1580 ng/mL
- Tmax [3, 10]: 1 h
- AUC(0-t) ([3]; male, beagle, in vivo, po, 5 mg/kg/day, males, 5 mg/kg/day, Day 0, read-out: AUC0-24): 7360 ng·h/mL
- Cmax [3, 11]: 1840 ng/mL
- Tmax [3, 11]: 2 h
- AUC(0-t) ([3]; male, beagle, in vivo, po, 5 mg/kg/day, males, 5 mg/kg/day, Day 13, read-out: AUC0-24): 7550 ng·h/mL
- Cmax [3, 12]: 3830 ng/mL
- Tmax [3, 12]: 1 h
- AUC(0-t) ([3]; male, beagle, in vivo, po, 10 mg/kg/day, males, 10 mg/kg/day, Day 0, read-out: AUC0-24): 13800 ng·h/mL
- Cmax [3, 13]: 1280 ng/mL
- Tmax [3, 13]: 1 h
- Cmax [3, 14]: 11600 ng/mL
- Tmax [3, 14]: 1 h
- AUC(0-t) ([3]; male, beagle, in vivo, po, 20 mg/kg/day, males, 20 mg/kg/day, Day 0, read-out: AUC0-24): 41700 ng·h/mL
- Cmax [3, 15]: 9280 ng/mL
- Tmax [3, 15]: 1 h
- AUC(0-t) ([3]; male, beagle, in vivo, po, 20 mg/kg/day, males, 20 mg/kg/day, Day 13, read-out: AUC0-24): 32800 ng·h/mL
- NOAEL at 26 weeks ([4]; both sexes, Crl:CD(SD)IGS BR, rat, in vivo, oral gavage, 26 weeks): 8 mg/kg/day
- exposure in female vs male rats ([4]; equivalent dosages): ≤ 2 fold
- liver metabolic enzyme induction ([4]; female rats, 25 mg/kg/day, 26 weeks): inducer of CYP1A, CYP2B, CYP2E, CYP3A, and CYP4A
- Tmax ([4]; female, Crl:CD(SD)IGS BR, rat, in vivo, po, 8 mg/kg/day, females, 8 mg/kg/day, Day 0): 1 h
- AUC(0-t) ([4]; female, Crl:CD(SD)IGS BR, rat, in vivo, po, 8 mg/kg/day, females, 8 mg/kg/day, Day 0, read-out: AUC0-24): 9970 ng·h/mL
- Tmax ([4]; female, Crl:CD(SD)IGS BR, rat, in vivo, po, 8 mg/kg/day, females, 8 mg/kg/day, Day 177): 2 h
- Cmax ([4]; female, Crl:CD(SD)IGS BR, rat, in vivo, po, 25 mg/kg/day, females, 25 mg/kg/day, Day 0): 2630 ng/mL
